The source made the active and inactive calls. The rule behind the calls is not given here.

Series [1] has as its target T1, Toll-like receptor 1/2 (Mus musculus) (UniProt Q9QUN7+Q9EPQ1). Put plainly: Antagonist activity at TLR1/2 in mouse RAW264.7 cells assessed as inhibition of Pam3CSK4-induced receptor activation by measuring NO production at 3 uM after 24 hrs. In kind it is cell-based.
Series [2] can be described thus: Cytotoxicity against mouse RAW264.7 cells assessed as decrease in cell viability at 3 uM by MTT assay. In kind it is cell-based. The conditions noted are these: raw264.7, 3 µM.
Series [3] can be described thus: Antiinflammatory activity in hippocampus (unknown origin) assessed as inhibition of Pam3CSK4-induced TNF-alpha mRNA expression level at 5 to 50 ng coadministered with Pam3CSK4 via intra-cisterna magna measured after 2 hrs by RT-PCR analysis. It counts as functional.
Series [4] is described as follows: Antiinflammatory activity in hippocampus (unknown origin) assessed as inhibition of Pam3CSK4-induced IL-1beta mRNA expression level at 5 to 50 ng coadministered with Pam3CSK4 via intra-cisterna magna measured after 2 hrs by RT-PCR analysis. It counts as functional.
Series [5] can be described thus: Cytotoxicity against mouse RAW264.7 cells assessed as decrease in cell viability at 8 uM by MTT assay. It counts as cell-based. The conditions noted are these: raw264.7, 8 µM.
Series [6] deals with T1, Toll-like receptor 1/2 (Mus musculus). As to the kind of experiment: (§1) Antagonist activity at TLR1/2 in mouse RAW264.7 cells assessed as inhibition of Pam3CSK4-induced receptor activation by measuring NO production after 24 hrs. In kind it is cell-based.
A short description of series [7]: Antiinflammatory activity in hippocampus (unknown origin) assessed as inhibition of Pam3CSK4-induced IL-6 mRNA expression level at 5 to 50 ng coadministered with Pam3CSK4 via intra-cisterna magna measured after 2 hrs by RT-PCR analysis. It counts as functional.
The target of series [8] is Toll-like receptor 1/2 (Homo sapiens) (UniProt O60603+Q15399). Put plainly: Antagonist activity at TLR1/2 in primary microglial cells (unknown origin) assessed as reduction in Pam3CSK4-induced IL-1beta mRNA expression level after 2 hrs. In kind it is cell-based.
The subject of series [9] is RAW264.7. Put plainly: Inhibition of Pam3CSK4-induced IL-1beta production in mouse RAW264.7 cells at 8 uM after 24 hrs by ELISA. It counts as functional, cell-based.
The test system of series [10] is RAW264.7. As to the kind of experiment: Inhibition of Pam3CSK4-induced TNF-alpha production in mouse RAW264.7 cells at 8 uM after 24 hrs by ELISA. It counts as functional, cell-based.
For series [11], the target named is Toll-like receptor 1/2 (Mus musculus, UniProt Q9EPQ1+Q9QUN7). The description is as §1. In kind it is cell-based.
Sequence of Toll-like receptor 1/2 (Q9QUN7 whole entry): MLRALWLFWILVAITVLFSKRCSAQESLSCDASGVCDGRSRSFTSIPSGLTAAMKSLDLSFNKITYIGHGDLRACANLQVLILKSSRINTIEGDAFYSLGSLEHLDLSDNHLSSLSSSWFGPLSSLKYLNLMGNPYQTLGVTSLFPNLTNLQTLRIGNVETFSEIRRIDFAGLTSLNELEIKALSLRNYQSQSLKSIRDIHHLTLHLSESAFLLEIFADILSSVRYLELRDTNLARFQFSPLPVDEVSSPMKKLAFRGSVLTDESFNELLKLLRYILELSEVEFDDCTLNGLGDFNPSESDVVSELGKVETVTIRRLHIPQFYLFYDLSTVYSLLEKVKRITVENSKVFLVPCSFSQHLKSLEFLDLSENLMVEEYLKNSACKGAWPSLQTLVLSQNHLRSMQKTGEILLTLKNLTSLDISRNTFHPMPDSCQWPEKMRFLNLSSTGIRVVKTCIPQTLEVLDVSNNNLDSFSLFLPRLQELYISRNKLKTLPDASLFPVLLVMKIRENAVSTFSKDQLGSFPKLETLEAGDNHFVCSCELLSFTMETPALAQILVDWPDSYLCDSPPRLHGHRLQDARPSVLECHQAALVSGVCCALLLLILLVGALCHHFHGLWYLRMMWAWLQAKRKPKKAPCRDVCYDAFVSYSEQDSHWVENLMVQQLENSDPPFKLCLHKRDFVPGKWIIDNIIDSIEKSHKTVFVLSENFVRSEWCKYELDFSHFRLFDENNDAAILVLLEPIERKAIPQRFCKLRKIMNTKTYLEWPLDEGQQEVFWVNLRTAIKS
Sequence of Toll-like receptor 1/2 (Q9EPQ1 whole entry): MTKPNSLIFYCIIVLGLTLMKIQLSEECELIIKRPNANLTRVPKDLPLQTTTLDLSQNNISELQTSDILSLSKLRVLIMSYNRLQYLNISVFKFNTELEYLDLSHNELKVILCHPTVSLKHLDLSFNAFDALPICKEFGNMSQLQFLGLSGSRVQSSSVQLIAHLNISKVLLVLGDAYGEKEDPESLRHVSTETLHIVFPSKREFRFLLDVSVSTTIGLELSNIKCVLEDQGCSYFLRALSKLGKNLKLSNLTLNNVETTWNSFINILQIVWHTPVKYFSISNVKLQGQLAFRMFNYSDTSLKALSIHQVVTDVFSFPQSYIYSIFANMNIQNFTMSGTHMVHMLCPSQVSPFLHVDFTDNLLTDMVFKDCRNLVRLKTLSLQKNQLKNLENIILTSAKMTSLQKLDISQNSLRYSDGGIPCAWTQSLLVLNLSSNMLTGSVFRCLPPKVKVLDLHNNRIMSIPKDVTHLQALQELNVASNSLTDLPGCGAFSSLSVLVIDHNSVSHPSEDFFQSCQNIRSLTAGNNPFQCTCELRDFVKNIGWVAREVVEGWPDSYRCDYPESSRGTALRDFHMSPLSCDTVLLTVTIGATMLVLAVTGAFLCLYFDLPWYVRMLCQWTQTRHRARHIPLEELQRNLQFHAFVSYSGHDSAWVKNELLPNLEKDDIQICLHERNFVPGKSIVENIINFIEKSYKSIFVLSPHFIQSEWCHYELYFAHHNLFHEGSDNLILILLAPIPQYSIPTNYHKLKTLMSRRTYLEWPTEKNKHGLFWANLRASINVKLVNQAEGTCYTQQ

For the compound `O=c1c(O)cccc2cc(O)c(O)c(O)c12` [PURPUROGALLIN], the inhibition in series [1] was > 70%. The Activity result in series [2] is given as “Non-Toxic”.

Turning to `CCCCCCOC(=O)c1cc(O)c(=O)c2c(O)c(O)c(OC)cc2c1`, the inhibition in series [1] is > 70%; in [6], “Dose-dependent effect”; in series [8] it was “Dose-dependent effect”. Also, the inhibition entry in [3], in [4], in series [7], in [9] and in series [10] was “Active” in each case. For the same compound, the Activity result in series [5] is “Non-Toxic”.

As to `CC(=O)Oc1cc2cccc(OC(C)=O)c(=O)c2c(OC(C)=O)c1OC(C)=O`, in series [11], the IC50 turned out to be 2350 nM.

Take `CCCCNC(=O)c1cc(O)c(=O)c2c(O)c(O)c(OC)cc2c1`: the half-inhibitory concentration (IC50) in series [11] is 1260 nM.

Consider `O=C(O)c1cc(O)c(=O)c2c(O)c(O)ccc2c1` [7-DESHYDROXYPYROGALLIN-4-CARBOXYLIC ACID], for which the 50% inhibitory concentration (IC50) in series [11] was 16500 nM.

With `COC(=O)c1cc(O)c(=O)c2c(O)c(O)ccc2c1` [METHYL 7-DESHYDROXYPYROGALLIN-4-CARBOXYLATE], in [11], the half-maximal inhibitory concentration (IC50) is 9010 nM.

Turning to `Oc1ccc(/N=C/c2c(O)ccc3ccccc23)cc1`, in series [1], the inhibition is > 70%. Also, in [2], the Activity entry is “Non-Toxic”.

Regarding `CC(=O)Oc1cc2c(c(OC(C)=O)c1OC(C)=O)C(=O)C1(OC(C)=O)C=CC2C2C(=O)OC(=O)C21` (stereo not given), the IC50 in [11] was 14800 nM.

On to `CCCCCCCCCCOC(=O)c1cc(O)c(=O)c2c(O)c(O)c(OC)cc2c1`, for which the IC50 in [11] was 1010 nM.

On to `CCCCCCCCCCCCCCOC(=O)c1cc(O)c(=O)c2c(O)c(O)c(OC)cc2c1`, for which the IC50 in [11] was 3240 nM.

As for `CC(=O)Oc1cc2cccc(OC(C)=O)c(=O)c2c(O)c1OC(C)=O`, the half-inhibitory concentration (IC50) in [11] turned out to be 1420 nM.

For `CCOC(=O)c1cc(O)c(=O)c2c(O)c(O)c(OC)cc2c1`, the half-inhibitory concentration (IC50) in series [11] was determined as 2830 nM.

For the compound `CN1CCN(C(=O)/C=C/c2ccc([N+](=O)[O-])o2)CC1`, the inhibition in series [1] was > 70%. Besides, the Activity entry in series [2] is “Non-Toxic”.

In the case of `CCCCCCCCOC(=O)c1cc(O)c(=O)c2c(O)c(O)c(OC)cc2c1`, the IC50 in series [11] was found to be 720 nM.

Turning to `Cc1cc(O)c(O)c2c(=O)c(O)cccc12`, in [11], the IC50 came out at 3130 nM.

For the compound `O=c1c(O)cccc2ccc(O)c(O)c12`, the half-maximal inhibitory concentration (IC50) in series [11] came to 2250 nM.

Take `O=c1c(O)cccc2cc(F)c(O)c(O)c12`: the half-maximal inhibitory concentration (IC50) in [11] turned out to be 22700 nM.

Turning to `CCCCOC(=O)c1cc(O)c(=O)c2c(O)c(O)c(OC)cc2c1`, the IC50 in [11] was determined as 2830 nM.

For the compound `O=C(Nc1ccc(Cl)c(Cl)c1)Nc1ccccc1O`, in [1], the inhibition was > 70%. Further, in [2], the Activity result is on record as “Non-Toxic”.

For `COc1cccc(NC(S)=Nc2ccc(O)cc2)c1`, the inhibition in series [1] was > 70%. Further, in [2], the Activity result was “Non-Toxic”.

`COc1cc2cccc(OC)c(=O)c2c(O)c1OC`: the half-inhibitory concentration (IC50) in series [11] worked out at 11700 nM.

For the compound `O=C(/C=C/c1ccc(O)c(O)c1)c1ccccc1O`, the inhibition in series [1] is > 70%. Also, the Activity entry in series [2] is recorded as “Non-Toxic”.

Turning to `O=[N+]([O-])c1cc(Cl)cc2c1nc(NCCO)c1ccccc12`, the inhibition in [1] was > 70%. The Activity result in series [2] is “Non-Toxic”.

Regarding `CC(=O)Oc1cc2cccc(O)c(=O)c2c(O)c1O`, the IC50 in series [11] is 4830 nM.

Regarding `C=C(C)[C@H]1Cc2c(ccc3c2O[C@@H]2COc4cc(OC)c(OC)cc4[C@@H]2C3=O)O1` [ROTENONE], the inhibition in series [1] was > 70%. For the same compound, the Activity entry in series [2] was “Non-Toxic”.

For the compound `COc1cc2c(c(OC)c1OC)C(=O)C1(OC)C=CC2C2C(=O)OC(=O)C21` (stereo not given), the concentration for half-maximal inhibition (IC50) in series [11] was 74600 nM.

As for `COc1cc2cc(C(=O)OC(C)C)cc(O)c(=O)c2c(O)c1O`, the IC50 in [11] was 2470 nM.

`CC(=O)/C=C/Nc1ccccc1O`: the inhibition in series [1] was > 70%. In addition, the Activity entry in series [2] is listed as “Non-Toxic”.
